This is an account of results in patent US12594264B2, “Modulators of alpha-synuclein proteolysis and associated methods of use” (Arvinas Operations, Inc., priority 2018, dated 2026).

A value given as a limit tells only on which side of the number the result lay.

Series [1] concerns the target T1, sarkosyl insoluble (SI) α-synuclein (human α-SYN A53T) (Homo sapiens, UniProt P37840, A53T).
T1 construct: expressed in transfected cells
In words: MJFF-14-6-4-2 conformation specific ELISA of sarkosyl insoluble α-synuclein after compound treatment. The series is classed as cell-based. The settings on record: 1 μM compound; protein remaining relative to DMSO control; PFF induced A53T α-synuclein overexpressing HEK293 cells; read-out: Protein Degradation at 1 μM. On the procedure:
(§1) Targeted degradation of sarkosyl insoluble (SI) α-synuclein via exemplary bifunctional compounds was assessed by MJFF-14-6-4-2 conformation specific ELISA following treatment of PFF induced A53T α-synuclein overexpressing HEK293 cells with 1 μM exemplary compound compared to DMSO vehicle control. Degradation activity of the exemplary compounds of Table 2 is expressed as % DMSO control. […] However, the effect of bifunctional targeting degraders, shown in FIG. 5, required the intact E3 ligase binding domain.
(§2) Trex293 (doxycycline inducible) cells stably expressing human α-SYN A53T (monoclonal) were plated in poly-d-lysine coated T-75 tissue culture flasks (4.5×10e6 cells/flask) in DMEM with 10% tet-free FBS, 10 μg/ml blasticidin, and 400 μg/ml zeocin. After an overnight incubation, the cells were induced to express α-SYN by treatment with 1 μg/ml doxycycline (Dox) and exemplary bifunctional compound. After a 24 hour dox induction, the medium on the cells was changed to Opti-MEM followed by treatment with α-SYN pre-formed fibrils** (PFFs)(5 μg/flask) pre-complexed with Lipofectamine 2000 transfection reagent for 4 hours. After PFF treatment, the medium was changed back to DMEM with the supplements described above and exemplary bifunctional compound for 48 hours.
(§3) Cell pellets were harvested from each flask using 0.25% trypsin followed by spinning at 500×g for 5 minutes. Each pellet was resuspended in 1 ml cold buffer H [Buffer H-10 mM Tris, 1 mM EGTA, 0.8M NaCl, 10% sucrose, pH7.4 containing 1× protease and phosphatase inhibitors] containing protease and phosphatase inhibitors. The resuspended pellets were incubated on ice for 20 minutes followed by centrifugation at 27,200×g for 20 minutes at 4° C. The supernatants were adjusted to 1% sarkosyl (Sigma) and 1% 2-mercaptoethanol followed by incubation for 1 hour at 37° C. on an orbital shaker set to 400 rpm. The samples were then spun at 150,000×g for 35 minutes at room temperature. The supernatant was removed and saved as the soluble fraction and the insoluble pellet was resuspended in 25 μl tris-buffered saline (TBS). Protein concentrations were determined by NanoDrop, and normalized protein concentrations were analyzed by WES capillary electrophoresis as well as an α-SYN oligomer ELISA.
Recombinant human α-SYN was purchased from Proteos. 1 mg aliquots were supplied at 10 mg/ml in 10 mM Tris, 50 mM NaCl, pH7.6. The aliquot was thawed on ice followed by centrifugation at 4° C. for 10 minutes at 12,000×g to pellet any insoluble material. The supernatant was removed and quantitated on a NanoDrop (A280) using Beer's Law (ε=5960 M-1 cm-1). The concentration was adjusted to 5 mg/ml in PBS followed by vortexing for 3 seconds to mix contents. The mixture was incubated in an orbital shaker set to 37° C. at 1,000 rpm for 7 days followed by aliquoting into individual use vials. Prior to addition to cells, an aliquot was thawed at room temperature, then diluted to 1 mg/ml with phosphate-buffered saline (PBS) followed by sonication for 1 minute with a probe sonicator (output 1; 90% duty cycle) in a chem hood.
Coming Costar high bind black well plates were coated with MJFR 14-6-4-2 (Abcam) at 1 μg/ml for 1 hour at 37° C. followed by washing with 1×TBS+0.1% tween-20 (TBS-T) then blocking with 3% bovine serum albumin (BSA) in TBS. After re-washing, samples were added after dilution in diluent (1% BSA/TBS-T). Non-sonicated PFF was used to generate a standard curve. The plates were incubated with sample overnight at 4° C. with shaking. The following day alkaline phosphatase (AP) conjugated MJFR 14-6-4-2 was added to the plate without washing followed by incubation at room temperature for 1 hour with shaking or rocking. The plates were then re-washed and substrate (CDP star alkaline phosphatase detection reagent) was added followed by a 30 minute incubation at room temperature. The plate was read on a luminescence plate reader. The counts were log transformed and read off the standard curve. […]
In general terms: An ELISA detects its analyte on a solid surface through an enzyme-linked reagent.

For series [2], the system named is PFF induced HEK293 TREX α-syn A53T cells. In words: Cytotoxicity by visual inspection of treated cells. As to conditions: 1 μM. Type of series: cell-based, human. As for the experimental part: as §1, §2
To assess targeted degradation of sarkosyl insoluble α-synuclein, exemplary bifunctional compounds designed to bind to oligomeric α-synuclein were tested at 1 μM in PFF induced HEK293 TREX α-syn A53T cells.

For series [3], the target named is T2, SI A53T α-synuclein protein oligomers (Homo sapiens, UniProt P37840, A53T).
T2 construct: expressed in transfected cells
In words: E3 ligase ligand competition experiment (Oligomer ELISA). The series is classed as cell-based. The settings on record: for Degradation activity with co-incubated excess E3 ligase ligand: 1 uM compound plus 15-fold molar excess E3 ligase ligand (VHL Ligand with 7, Cereblon Ligand with 23), FIG. 6A bars 2 and 4; for Reduction of SI A53T α-synuclein oligomers (Oligomer ELISA), compound alone: 1 uM compound, no competitor, FIG. 6A bars 1 and 3. On the procedure:
FIGS. 6A and 6B. α-Synuclein bifunctional degradation compound activity requires the E3 ligase activity for effective degradation. Pre-formed alpha-synuclein fibrils (α-syn PFFs) were added to TREX tetracycline inducible HEK293 cells that overexpress A53T mutant α-syn to induce detergent-insoluble oligomers as measured by Oligomer ELISA. Doxycycline induced α-syn A53T cells were treated with PFFs to produce higher order oligomeric α-syn A53T in the sarkosyl insoluble fraction and SI α-syn oligomers were detected by ELISA, as described in below. Exemplary bifunctional degradation compounds 7 and 23 at 1 uM concentration, used to generate the data shown in bars 1 and 3, reduced sarkosyl insoluble α-syn.
as §2, §3
Coming Costar high bind black well plates were coated with MJFR 14-6-4-2 (Abcam) at 1 μg/ml for 1 hour at 37° C. followed by washing with 1×TBS+0.1% tween-20 (TBS-T) then blocking with 3% bovine serum albumin (BSA) in TBS. […] The plate was read on a luminescence plate reader. The counts were log transformed and read off the standard curve. […]

For the compound `Cc1ncsc1-c1ccc([C@H](C)NC(=O)[C@@H]2C[C@@H](O)CN2C(=O)[C@@H](NC(=O)COCCOCCOc2ccc(CN3C(=O)C(=CC=Cc4ccc([N+](=O)[O-])cc4)c4ccccc43)cc2)C(C)(C)C)cc1` (single isomer, unassigned) [Exemplary Compound 7], in series [1], the remaining activity at 1 µM lay in the range of 35 to 70%. Also, in series [2], the “Cytotoxicity at the concentration tested” value is recorded as “without any visual impact to cell health”. For the same compound, in series [3], the “Degradation activity with co-incubated excess E3 ligase ligand” value was “effectively competed” and the “Reduction of SI A53T α-synuclein oligomers (Oligomer ELISA), compound alone” value is “effectively reduced”.

Turning to `CNc1ccc(-c2nc3ccc(OCCOCCOCCOCC(=O)N[C@H](C(=O)N4C[C@H](O)C[C@H]4C(=O)N[C@@H](C)c4ccc(-c5scnc5C)cc4)C(C)(C)C)cc3s2)cc1` [Exemplary Compound 2, (2S,4R)-1-((S)-2-(tert-butyl)-14-((2-(4-(methylamino)phenyl)benzo[d]thiazol-6-yl)oxy)-4-oxo-6,9,12-trioxa-3-azatetradecanoyl)-4-hydroxy-N—((S)-1-(4-(4-methylthiazol-5-yl)phenyl)ethyl)pyrrolidine-2-carboxamide], the remaining activity at 1 µM in series [1] was 35 to 70%. Besides, in series [2], the “Cytotoxicity at the concentration tested” value is “without any visual impact to cell health”.

With `CNc1ccc(-c2nc3ccc(OCCOCCOCCOCCOCCOCCOCC(=O)N[C@H](C(=O)N4C[C@H](O)C[C@H]4C(=O)N[C@@H](C)c4ccc(-c5scnc5C)cc4)C(C)(C)C)cc3s2)cc1` [Exemplary Compound 5, (2S,4R)-1-((S)-2-(tert-butyl)-23-((2-(4-(methylamino)phenyl)benzo[d]thiazol-6-yl)oxy)-4-oxo-6,9,12,15,18,21-hexaoxa-3-azatricosanoyl)-4-hydroxy-N-((S)-1-(4-(4-methylthiazol-5-yl)phenyl)ethyl)pyrrolidine-2-carboxamide], the remaining activity at 1 µM in series [1] is < 35%. Besides, the “Cytotoxicity at the concentration tested” value in series [2] is “without any visual impact to cell health”.

As for `Cc1ncsc1-c1ccc([C@H](C)NC(=O)[C@@H]2C[C@@H](O)CN2C(=O)[C@@H](NC(=O)COCCOCCOCCOc2ccc3c(c2)Sc2cc([N+](=O)[O-])ccc2N3)C(C)(C)C)cc1` [Exemplary Compound 9, (2S,4R)-1-((S)-2-(tert-butyl)-14-((7-nitro-10H-phenothiazin-3-yl)oxy)-4-oxo-6,9,12-trioxa-3-azatetradecanoyl)-4-hydroxy-N-((S)-1-(4-(4-methylthiazol-5-yl)phenyl)ethyl)pyrrolidine-2-carboxamide], the remaining activity at 1 µM in series [1] is > 120%. The results for the “Cytotoxicity at the concentration tested” value in series [2] and in series [2] (listed as 9) were “cytotoxicity” and “cytotoxic”, respectively.

On to `Cc1ncsc1-c1ccc([C@H](C)NC(=O)[C@@H]2C[C@@H](O)CN2C(=O)[C@@H](NC(=O)COCCOCCOCCOCCOCCOCCOc2ccc3c(c2)Sc2cc([N+](=O)[O-])ccc2N3)C(C)(C)C)cc1` [Exemplary Compound 12, (2S,4R)-1-((S)-2-(tert-butyl)-23-((7-nitro-10H-phenothiazin-3-yl)oxy)-4-oxo-6,9,12,15,18,21-hexaoxa-3-azatricosanoyl)-4-hydroxy-N-((S)-1-(4-(4-methylthiazol-5-yl)phenyl)ethyl)pyrrolidine-2-carboxamide], for which, in series [1], the remaining activity at 1 µM was > 120%. Moreover, the “Cytotoxicity at the concentration tested” value in series [2] is “cytotoxicity”; in series [2] (listed as 12) it was “cytotoxic”.

In the case of `O=C1CCC(N2C(=O)c3ccc(N4CCN(CCN5CCC(OC6CN(CCCN7c8ccccc8Sc8ccccc87)C6)CC5)CC4)cc3C2=O)C(=O)N1` (centres unmarked) [Exemplary Compound 23, 5-(4-(2-(4-((1-(3-(10H-phenothiazin-10-yl)propyl)azetidin-3-yl)oxy)piperidin-1-yl)ethyl)piperazin-1-yl)-2-(2,6-dioxopiperidin-3-yl)isoindoline-1,3-dione], in series [1], the remaining activity at 1 µM lay within 35 to 70%. For the same compound, in series [3], the “Degradation activity with co-incubated excess E3 ligase ligand” value was “effectively competed” and the “Reduction of SI A53T α-synuclein oligomers (Oligomer ELISA), compound alone” value is given as “effectively reduced”.

`COc1ccc2nc(-c3ccc(N4CC(OC5CCN(CCCCCOc6ccc7c(c6)C(=O)N(C6CCC(=O)NC6=O)C7=O)CC5)C4)cc3)sc2c1` (centres unmarked) [Exemplary Compound 25, 2-(2,6-dioxopiperidin-3-yl)-5-([5-[4-([1-[4-(6-methoxy-1,3-benzothiazol-2-yl)phenyl]azetidin-3-yl]oxy)piperidin-1-yl]pentyl]oxy)-2,3-dihydro-1H-isoindole-1,3-dione]: the remaining activity at 1 µM in series [1] was > 120%. Besides, the “Cytotoxicity at the concentration tested” value in series [2] is on record as “cytotoxicity”; in series [2] (listed as 25) it was “cytotoxic”.
